Assays:
[1] = molecular target: T1, TGFBIp611-633 N622K peptide (Homo sapiens, UniProt Q15582, N622K); test: ThT fluorescence assay, inhibition of amyloid fibrillation; type: biochemical; details: TGFBIp-N622K, final time point
T1 construct: The TGFBIp^611-633 N622K peptides were treated with 200 mM and 320 mM of taurine; purchased Synpeptide Co Ltd, Shanghai, China; host or cells: synthetic peptide
Protocol: The TGFBIp^611-633 G623R peptides were treated with 200 mM and 320 mM of taurine for up to 72 hours, respectively, the results of which are illustrated in FIG. 11. The TGFBIp^611-633 N622K peptides were treated with 200 mM and 320 mM of taurine for up to 240 hours, respectively, the results of which are illustrated in FIG. 12. The peptides incubated with PBS were used as controls.
The peptide samples were collected at 24 h, 48 h and 72 h after treatment for TGFBIp^611-633 G623R peptides and at 120 h, 144 h and […] after treatment for the TGFBIp^611-633 N622K peptides. The samples were then treated with 30 μM ThT in PBS buffer at pH 5.5 in a 96-well microplate for ThT fluorescence assay. The microplate was excited at 445 nm and the resulting emission fluorescence at 485 nm was measured using a microplate reader.

[2] = molecular target: T2, preformed amyloid fibrils from TGFBIp611-633 G623R peptide (Homo sapiens, UniProt Q15582, G623R); test: ThT fluorescence microscopy, disaggregation of preformed amyloid fibrils; details: 200 mM and 320 mM
T2 construct: The 23-amino acid long peptide (TGFBIp 611-633 c.623 G>R) from the 4th FAS1 domain; purchased Synpeptide Co Ltd, Shanghai, China; host or cells: synthetic peptide
Protocol: The ability of osmolytes to disaggregate the preformed amyloid fibrils were investigated further by fluorescence microscopy after ThT staining. The peptide samples collected at the various time points above were incubated at a ratio of 1:1 ratio of thpeptide solution to ThT in the dark for 30 minutes to obtain solutions for fluorescence microscopy. 25 μl of the solutions were taken on to slides with coverslips and visualized under a fluorescent microscope. Three representative images from each time point under a given condition was used for the quantitation of fluorescence. Image J software was used to quantify the signal from the images and the values for each time point per osmolyte treatment were normalised to the untreated sample at that particular time point.
The inhibition effect of taurine on the preformed amyloid fibrils was investigated further by fluorescence microscopy after ThT staining. The samples collected at the various time points above were incubated ThT at a ratio of 1:1 ratio in the dark for 30 minutes to obtain solutions for fluorescence microscopy. 25 μl of the solutions were taken on to slides with coverslips and visualized under a fluorescent microscope.

[3] = molecular target: T1, TGFBIp611-633 N622K peptide; test: Circular Dichroism assay, inhibition of amyloid fibrillation; type: biochemical; details: TGFBIp-N622K, final time point, read-out: % Inhibition at final time point, CD
Protocol: Circular Dichroism (CD) spectroscopy was performed to study the changes in the secondary structure of the peptides. The TGFBIp^611-633 G623R peptides were treated with 200 mM and 320 mM of taurine in PBS buffer at pH 7.0 for 24 h, 48 h and 72 h, respectively. While the TGFBIp^611-633 N622K peptides were treated with 200 mM and 320 mM of taurine in PBS buffer at pH 7.0 for 72 h, 96 h, 120 h, 144 h, 192 h, 216 h, and 240 h, respectively. The treatment solutions were studied by far UV-CD assay.

T1 sequence (Q15582 611-633 N622K limits assumed): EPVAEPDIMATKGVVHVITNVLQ
T2 sequence (Q15582 611-633 G623R limits assumed): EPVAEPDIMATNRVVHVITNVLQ

inhibition at 200000 µM ([1]; 200 mM): 37% | inhibition at 320000 µM ([1]; 320 mM): 76% | fluorescent intensity under microscope, preformed fibrils [2]: reduction in fluorescent intensity | inhibition at 200000 µM ([3]; 200 mM): 39% | inhibition at 320000 µM ([3]; 320 mM): 66%
SMILES: NCCS(=O)(=O)O [Taurine, taurine]

Source: patent US20220265591A1, “USE OF AN OSMOLYTE IN MANUFACTURE OF A MEDICAMENT FOR TREATMENT OF OCULAR DISORDERS” (SINGAPORE HEALTH SERVICES PTELTD, priority 2019, published 2022)
